Data reported in patent publication US20130129675A1, “INTERFERON THERAPIES IN COMBINATION WITH BLOCKADE OF STAT3 ACTIVATION” (BOARD OF REGENTS, THE UNIVERSITY OF TEXAS SYSTEM, priority 2009, published 2013).
Read-outs that look alike come from different tables or passages of the source.

What was measured:
STAT3 = STAT3 (Homo sapiens, UniProt P40763); details: in vitro; cited from earlier work
[1] = system: breast carcinoma cell lines with constitutively active STAT3; details: cited from earlier work
[2] = system: human breast tumor xenografts; details: cited from earlier work
intracerebral tumors = details: mouse, in vivo; cited from earlier work
[3] = Toxicology of p-STAT3 inhibitors in mice (histology of systemic organs, Luxol fast blue staining of CNS axis); type: in vivo, C57BL/6J mice; details: for histological examination of the systemic organs: treated mice
Text: The toxicological properties of the small molecule inhibitors of p-STAT3 appear favorable. […] Because p-STAT3 blockade agents are potent immune activators, nonspecific immune reactivity in the CNS remains a consideration. […] Fujita M, Zhu X, Sasaki K, et al., Inhibition Of STAT3 Promotes The Efficacy Of Adoptive Transfer Therapy Using Type-1 CTLs By Modulation Of The Immunological Microenvironment In A Murine Intracranial Glioma, J Immunol 2008; 180:2089-2098. This lack of induced autoimmunity may be due to STAT3's role as the key regulator of the generation of Th17 cells, which are primary immune cell mediators of autoimmunity. Thus, the inhibitors of p-STAT3 may also be inhibiting the mediators of CNS autoimmunity-Th 17 responses.

[4] = system: human breast carcinoma and syngeneic murine melanoma; details: not in carcinomas that lack constitutive expression of p-STAT3; cited from earlier work
[5] = system: lymphoma and cervical cancer; details: cited from earlier work
[6] = animals treated with JSI-124 (Fujita et al.); cited from earlier work
[7] = system: human melanoma xenografts and syngeneic murine melanoma; assay: WP1066 in melanoma xenografts and syngeneic melanoma; type: in vivo; details: oral gavage
Description: (§1) Iwamaru A, Szymanski S, Iwado E, et al., A Novel Inhibitor Of The STAT3 Pathway Induces Apoptosis In Malignant Glioma Cells Both In Vitro And In Vivo. Oncogene 2006; 26: 2435-2444. […] To determine whether treatment with WP1066 is efficacious against established syngeneic intracerebral tumors, C57BL/6J mice with melanoma tumors (B16) were treated by oral gavage with WP1066 starting on day 3 after tumor implantation. […] Kong L Y, Abou-Ghazal M K, Wei J, et al., A Novel Inhibitor Of STAT3 Activation Is Efficacious Against Established Central Nervous System Melanoma And Inhibits Regulatory T Cells, Clin Cancer Res (Submitted).

[8] = system: malignant glioma xenografts (U-87 and U-373); details: cited from earlier work
[9] = system: CD4+CD25−CD62Lhi naïve T cells; assay: FoxP3 induction during inducible Treg (iTreg) differentiation; type: cell-based, C57BL/6J mice; details: 0, 0.1 and 1.0 μM, 96 hours, flow cytometry (FIG. 2)
Description: (§2) The blockade of activation of STAT3 and its subsequent nuclear translocation inhibits both tumorigenesis and tumor-mediated immunosuppression. […] CD4^+CD25^−CD62L^hi naïve T cells from C57BL/6J mice were stimulated by plate-bound anti-CD3 (2 μg/ml) and soluble anti-CD28 (2 μg/ml) in the presence of TGF-β1 (1 ng/ml) and hIL-2 (200 U/ml), with 0, 0.1, and 1.0 μM WP1066 for inducible Tregs (iTreg) differentiation. CD4^+CD25^+ T cells (natural Tregs, nTreg) were stimulated by plate-bound anti-CD3 (2 μg/ml) and soluble anti-CD28 (2 μg/ml) in the presence of hIL-2 (200 U/ml), with 0, 0.1, and 1.0 μM WP1066. Ninety-six hours after stimulation, the cells were analyzed for intracellular FoxP3 expression by flow cytometry. The percentage of FoxP3 expressing T cells is shown.
(§3) In additional experiments, CD4^+CD25^−CD62L^hi naïve T cells from C57BL/6J mice were stimulated by plate-bound anti-CD3 (2 μg/ml) and soluble anti-CD28 (2 μg/ml) in the presence of TGF-β1 (1 ng/ml) and hIL-2 (200 U/ml), with 0, 0.1, and 1.0 μM WP1066 for inducible Tregs (iTreg) differentiation. CD4^+CD25^+ T cells (natural Tregs, nTreg) were stimulated by plate-bound anti-CD3 (2 μg/ml) and soluble anti-CD28 (2 μg/ml) in the presence of hIL-2 (200 U/ml), with 0, 0.1, and 1.0 μM WP1066. Ninety-six hours after stimulation, the cells were analyzed for intracellular FoxP3 expression by flow cytometry.

melanoma tumors (B16) = assay: WP1066 against established syngeneic intracerebral tumors; type: in vivo, C57BL/6J mice
Description: as §1
Fujita M, Zhu X, Sasaki K, et al., Inhibition Of STAT3 Promotes The Efficacy Of Adoptive Transfer Therapy Using Type-1 CTLs By Modulation Of The Immunological Microenvironment In A Murine Intracranial Glioma, J Immunol 2008; 180:2089-2098. […] Furthermore, when JSI-124 was combined with adoptive transfer of type I cytotoxic T lymphocytes, survival was further enhanced compared with treatment with either modality alone. The authors concluded that the inhibition of STAT3 could reverse the immune-suppressive immune microenvironment and promote the efficacy of adoptive transfer therapy. Id.

[10] = parameters: species or system CD1 mice; details: in vivo; for mean peak plasma concentration: CD1, mouse, iv
Description: Of central importance to the treatment of CNS gliomas and metastasis is the use of agents with sufficient CNS permeability and subsequent cytotoxic activity, of which there is direct evidence for WP1066 and indirect evidence for JSI-124. To determine the physiological doses of WP1066 that can be achieved in vivo, CD1 mice were given WP1066 as an intravenous bolus (10 or 40 mg/kg) or by oral gavage (40 mg/kg) and killed at various time points up to 24 hours after treatment. […] When WP1066 was delivered intraperitoneally at a dose of 100 mg/kg or intravenously at a dose of 10 mg/kg every other day for up to 2 weeks, plasma concentrations exceeded 1 μM, and CNS concentrations (with an intact blood-brain barrier) exceeded 62 μg/g of tissue (0.185 μM); concentrations in U87-MG malignant glioma-bearing animals exceeded 362 μg/g (1.08 μM). […] Fujita M, Zhu X, Sasaki K, et al., Inhibition Of STAT3 Promotes The Efficacy Of Adoptive Transfer Therapy Using Type-1 CTLs By Modulation Of The Immunological Microenvironment In A Murine Intracranial Glioma, J Immunol 2008; 180:2089-2098.

[11] = system: microglia, systemic APCs and T cells from patients with cancer; assay: WP1066 on immune cells obtained from patients with cancer; type: cell-based
Text: We recently have shown that blocking STAT3 activity by treatment with WP1066 in microglia obtained from the CNS of patients with cancer upregulates co-stimulatory molecules (e.g., CD80, CD86). The expression of co-stimulatory molecules is necessary for T-cell proliferation, and if a T cell encounters APCs, such as microglia/microphages, without co-stimulatory molecules present, the T cells will be rendered anergic. […] Of note, this potent immune activation occurred in immune cells obtained from patients with disease refractory to other conventional immune activators, such as toll-like receptor agonists.

[12] = system: head and neck carcinoma (MDA1986), pancreatic cancer (MiaPaca2), bladder cancer, glioma (U-87), lymphoma, myeloma, leukemia; details: 40 mg/kg intraperitoneally every other day for 28 days; cited from earlier work
[13] = system: CD4+CD25+ T cells (natural Tregs); assay: FoxP3 expression in natural Tregs (nTreg); type: cell-based, C57BL/6J mice; details: 0, 0.1 and 1.0 μM, 96 hours, flow cytometry (FIG. 2)
Description: as §2, §3

[14] = system: human lung cancer xenografts; details: cited from earlier work
[15] = system: STAT3 in HaCaT keratinocytes; assay: pSTAT3 level in HaCaT keratinocytes (MSD chemiluminescent detection); type: cell-based, human; details: for Relative level of pSAT3: HaCaT cells, stimuli for 30 minutes
Description: Prior to experiments, the DMEM medium was changed to KGM-SFM containing rEGF and bovine pituitary extract for 12 hours, and the cells then exposed to various stimuli for 30 minutes. Cell lysates were extracted in IP lysis buffer were diluted in MSD extraction buffer and 25 uL of the cell lysate containing 10 ug protein was used in the analysis via chemiluminescent detection (MSD Technology). To test for inhibition by WP1220 (WP), cells were pre-incubated with WP1220 prior to the addition of IFN α.

STAT3, sequence (P40763 whole entry, species assumed): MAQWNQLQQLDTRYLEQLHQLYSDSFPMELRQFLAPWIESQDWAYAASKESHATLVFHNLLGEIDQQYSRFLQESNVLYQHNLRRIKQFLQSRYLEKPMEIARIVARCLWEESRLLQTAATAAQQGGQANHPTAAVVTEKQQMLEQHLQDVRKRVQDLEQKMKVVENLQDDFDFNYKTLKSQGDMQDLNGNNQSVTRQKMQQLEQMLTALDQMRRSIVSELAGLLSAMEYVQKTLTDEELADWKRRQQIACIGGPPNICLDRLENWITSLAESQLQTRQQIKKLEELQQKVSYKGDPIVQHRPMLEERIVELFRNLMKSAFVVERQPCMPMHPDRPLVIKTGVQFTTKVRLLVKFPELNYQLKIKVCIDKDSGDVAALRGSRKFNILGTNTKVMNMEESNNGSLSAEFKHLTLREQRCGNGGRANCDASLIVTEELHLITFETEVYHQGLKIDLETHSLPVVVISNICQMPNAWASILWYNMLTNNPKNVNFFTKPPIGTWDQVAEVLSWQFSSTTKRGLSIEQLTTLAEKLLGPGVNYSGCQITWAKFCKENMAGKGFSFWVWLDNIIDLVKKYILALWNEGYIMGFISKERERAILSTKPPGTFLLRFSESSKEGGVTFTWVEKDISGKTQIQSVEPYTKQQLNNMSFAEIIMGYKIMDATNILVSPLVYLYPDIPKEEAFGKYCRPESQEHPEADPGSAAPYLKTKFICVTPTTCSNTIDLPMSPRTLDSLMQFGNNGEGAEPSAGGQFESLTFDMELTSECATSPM

N#C/C(=C\c1ccc(O)c(O)c1)C(=O)NCc1ccccc1 [AG490, (E)-N-benzyl-2-cyano-3-(3,4-dihydroxyphenyl)acrylamide]
IC50 (STAT3): > 50 µM

Cc1ccc(S(=O)(=O)OCC(=O)Nc2ccc(C(=O)O)c(O)c2)cc1 [Example S31-301]
growth and apoptosis [1]: inhibit growth and induce apoptosis preferentially
in vivo tumor growth [2]: suppress the in vivo growth of human breast tumor xenografts

CC(C)(O)/C=C/C(=O)[C@](C)(O)[C@H]1[C@H](O)C[C@@]2(C)[C@@H]3CC=C4[C@@H](C=C(O)C(=O)C4(C)C)[C@]3(C)C(=O)C[C@]12C [JSI-124, cucurbitacin I]
survival (intracerebral tumors): prolonged survival
histological examination of the systemic organs [3]: failed to reveal any major toxicities
in vivo tumor growth [4]: inhibit the in vivo growth of human breast carcinoma and syngeneic murine melanoma
in vitro activity [5]: in vitro activity against lymphoma and cervical cancer
induced autoimmunity [6]: no evidence of induced autoimmunity

C[C@H](NC(=O)/C(C#N)=C/c1cccc(Br)n1)c1ccccc1 [WP1066, (S,E)-3-(6-bromopyridin-2-yl)-2-cyano-N-(1-phenylethyl)acrylamide]
induction of autoimmunity in CNS (Luxol fast blue staining) ([3]; C57BL/6J mice): no evidence of induction of autoimmunity
local tolerability ([3]; mouse, in vivo): localized inflammatory responses
histological examination of the systemic organs [3]: failed to reveal any major toxicities
tumor growth [7]: marked growth suppression
duration of p-STAT3 inhibition in excised tumors after the final injection ([8]; immunohistochemical analysis): at least 3 weeks
tumor growth ([8]; systemic intraperitoneal administration, 30-day follow-up): significant inhibition of tumor growth
FoxP3 induction in T cells [9]: inhibiting FoxP3 induction
in vivo efficacy in immune-incompetent background (melanoma tumors (B16); established intracerebral tumors, immune-incompetent background): ablated
animals surviving long-term (melanoma tumors (B16); oral gavage starting on day 3 after tumor implantation, vehicle control 0%): 80%
mean peak plasma concentration ([10]; 10 mg/kg): 1.05 µM
mean peak plasma concentration ([10]; 40 mg/kg): 4.31 µM
mean peak plasma concentration (oral bioavailability studies) ([10]; mouse, po, 40 mg/kg): greater than 2 μM
immune-suppressive cytokines such as TGF-β [11]: inhibits
production of pro-inflammatory cytokines (IL-2, IL-4, IL-12, IL-15) by systemic APCs ([11]; immune-suppressed patients): induces
co-stimulatory molecules (CD80, CD86) on microglia ([11]; microglia from the CNS of patients with cancer): upregulates
tumor growth [12]: statistically significant suppression of tumor growth
FoxP3 in natural Tregs [13]: down-regulates FoxP3

Cucurbitacin Q
in vivo tumor growth [14]: suppressed in vivo growth of human lung cancer xenografts

EGF: growth factor, stimulus in HaCaT pSTAT3 test (NSDSECPLSHDGYCLHDGVCMYIEALDKYACNCVVGYIGERCQYRDLKWWELR; Epidermal growth factor; UniProt P01133 971-1023, looked up)
Relative level of pSAT3 [15]: + (+=less than 200 fold)

IL-6: cytokine, stimulus in HaCaT pSTAT3 test
STAT3 activation in keratinocytes [15]: potently induce STAT3 activation
Relative level of pSAT3 [15]: +++++ (+++++=400-500 fold)

bFGF: basic fibroblast growth factor, stimulus in HaCaT pSTAT3 test
Relative level of pSAT3 [15]: + (+=less than 200 fold)
